Measurements reported in paper PMC6934184, “Selective DNA-PKcs inhibition extends the therapeutic index of localized radiotherapy and chemotherapy” (The Journal of Clinical Investigation, 2019).

Target: T1, CAMK2G (CaMKII gamma) (Homo sapiens, UniProt Q13555)
T1 construct: purchased Thermo Fisher Scientific (Life Technologies) SelectScreen
Assay: SelectScreen LanthaScreen
Assay type: binding
Conditions: read-out: % displacement
Method in brief: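 Percent values come from Thermo SelectScreen profiling of NU5455, combining activity and binding assays. CSF1R was run in Z'LYTE format at Km app ATP, and CAMK1 in Adapta format with ATP listed at 10.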

T1 sequence (Q13555 whole entry): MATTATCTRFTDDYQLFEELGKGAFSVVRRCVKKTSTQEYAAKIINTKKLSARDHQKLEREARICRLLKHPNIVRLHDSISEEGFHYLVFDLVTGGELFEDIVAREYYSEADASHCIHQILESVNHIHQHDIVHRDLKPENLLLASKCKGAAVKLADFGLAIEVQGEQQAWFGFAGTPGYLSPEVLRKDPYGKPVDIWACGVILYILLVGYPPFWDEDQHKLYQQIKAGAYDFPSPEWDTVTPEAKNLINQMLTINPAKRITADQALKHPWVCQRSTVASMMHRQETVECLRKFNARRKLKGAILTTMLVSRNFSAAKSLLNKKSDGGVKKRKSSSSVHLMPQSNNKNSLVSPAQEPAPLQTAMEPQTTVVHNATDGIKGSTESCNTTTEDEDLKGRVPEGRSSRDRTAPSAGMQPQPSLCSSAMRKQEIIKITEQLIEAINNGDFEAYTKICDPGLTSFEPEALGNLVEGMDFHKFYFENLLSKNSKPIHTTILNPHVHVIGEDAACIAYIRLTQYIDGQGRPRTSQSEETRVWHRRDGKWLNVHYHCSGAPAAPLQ

Question: How did the inhibition at 1 µM turn out when `CN(C(=O)CN1CCOCC1)c1ccc2sc3c(-c4cccc5c(=O)cc(N6CC7CCC(C6)O7)oc45)cccc3c2c1` [NU5455] was run?
Answer: Its inhibition at 1 µM is -0.8%.
